# In patent publication US20090078651A1, “Mung Water Treatment Method” (ReNew Systems, Inc., priority 2007, published 2009):
# Legend:
# [1] = test system: bacteria colonies from mung water; test: Most probable number plates of treated mung water samples (bacteria colony counts); type: cell-based; conditions: for colonies counted, Most Probable Number Plates: T = 24
# Experimental: On 27 Sep. 2006 an experimental was conducted to compare the effects of treating mung water with DBNPA only to the effects of treating mung water with both DBNPA and Odor-Out®. The experiment was set-up in 250 ml baffled shake flasks with dispo plugs. The Odor Out® solutions used in this experiment were “aged”, having been prepared on 12 Sep. 2006 in tap water. The DBNPA solution was made up just prior to making additions to the flasks and was made using distilled water. After mung water samples and DBNPA and Odor Out® treatment additives were added, the flasks were placed in an incubation shaker set at 30 degrees C. and shaken at 100 rpm. The experiment was started at 2:30 p.m. on 27 Sep. 2006. The flasks were shaken for 2½ hours at which point the shaker was turned off and the flasks were allowed to incubate in a stationary position overnight. The next day, on 28 Sep. 2006 from 11 a.m.-2 p.m., serial dilutions were made up and most probable number plates were prepared. The plates were incubated overnight at 30 degrees C. On 29 Sep.
# [2] = designed property; cited from earlier work
structure (smiles),measurement,setting,value
"N#CC(Br)(Br)C(N)=O [DBNPA, 2.2-dibromo-3-nitrilopropionamide]","colonies counted, Most Probable Number Plates","[1]; Straight, DBNPA 0.05% 10 μl in 50 ml mung water, no Odor Out (1a)",TNC (the colonies on the plates were too numerous to count (>300))
same,"colonies counted, Most Probable Number Plates","[1]; dilution 10^−1, DBNPA 0.05% 10 μl in 50 ml mung water, no Odor Out (1a)",TNC (the colonies on the plates were too numerous to count (>300))
same,"colonies counted, Most Probable Number Plates","[1]; dilution 10^−2, DBNPA only (1a)",5
same,"colonies counted, Most Probable Number Plates","[1]; dilution 10^−3, DBNPA only (1a)",1
same,"colonies counted, Most Probable Number Plates","[1]; dilution 10^−4, DBNPA only (1a)",0
same,"colonies counted, Most Probable Number Plates","[1]; dilution 10^−5, DBNPA only (1a)",0
same,"colonies counted, Most Probable Number Plates","[1]; dilution 10^−6, DBNPA only (1a)",0
same,"colonies counted, Most Probable Number Plates","[1]; dilution 10^−7, DBNPA only (1a)",0
same,"bacteria colony counts, change",[1]; mung water samples treated only with DBNPA,moderate reductions
same,time to biodegrade after introduction into a recirculating water system,[2],≤ 48 h
